Source: patent publication US20230303599A1, “PRODRUGS OF PHOSPHONAMIDE NUCLEOTIDE ANALOGUES AND THEIR PHARMACEUTICAL USE” (priority 2020, published 2023)
Converted amounts (≈) assume the structure as drawn.

Assay: Kinetic solubility analysis
Type: physicochemical
Details: 1× PBS, 24.2 °C, aqueous buffer, kinetic from dmso stock; pH 7.4 PBS, 1% DMSO, 24-hour incubation at ambient temperature
Procedure: Example 108: Kinetic Solubility Analysis
Buffer Preparation: 0.1 N HCl: Hydrochloric acid, 0.1 N standardized solution (MP Biomedicals part number 199569). 1×PBS, pH 7.4: Phosphate Buffered Saline (PBS) solution 10× (Fisher Bioreagent part number BP399-500) 50 mL was added to approximately 450 mL HPLC grade H2O. The volume of the solution was then adjusted to 500 mL for a total dilution factor of 1:10 and a final PBS concentration of 1×.
The final DMSO concentration was 1.0% (v/v) and maximum theoretical compound concentration is 100 μM (for compound stock concentration of 10 mM). The filter plate was sealed. Following 24-hour incubation at ambient temperature (24.2-27.5° C.), the samples were vacuum filtered and the filtrates were collected in a 96 well polypropylene plate for analysis. The collection plate was sealed for analysis. Filtrates were injected into the Antek 8060 chemiluminescent nitrogen detector for quantification. The results are reported in μM.
The filtrates were quantified with respect to this calibration curve. Each calculated solubility value was corrected for background nitrogen present in the DMSO and in the medium used to prepare the sample. All reported values for compounds containing adjacent nitrogen atoms in a ring structure were increased by approximately 25%.

solubility kinetic at 24 h [µg/mL] | SMILES
64 (≈ 103 µM) | C[C@H](Cn1cnc2c(N)ncnc21)OCP(=O)(NC(C)(C)C(=O)OCC1CCCC1)NC(C)(C)C(=O)OCC1CCCC1 [Example 45, Bis(cyclopentylmethyl) 2,2′-(((((1-(6-amino-9H-purin-9-yl)propan-2-yl)oxy)methyl)phosphoryl)bis(azanediyl))(R)-bis(2-methylpropanoate)]
72 (≈ 127 µM) | C[C@H](Cn1cnc2c(N)ncnc21)OCP(=O)(NC(C)(C)C(=O)OC1CCC1)NC(C)(C)C(=O)OC1CCC1 [Example 47, Dicyclobutyl 2,2′-(((((1-(6-amino-9H-purin-9-yl)propan-2-yl)oxy)methyl)phosphoryl)bis(azanediyl))(R)-bis(2-methylpropanoate)]
54 (≈ 83.6 µM) | C[C@H](Cn1cnc2c(N)ncnc21)OCP(=O)(NC(C)(C)C(=O)OC1CC2(CCC2)C1)NC(C)(C)C(=O)OC1CC2(CCC2)C1 (stereo partly drawn) [Example 41, Di(spiro[3.3]heptan-2-yl) 2,2′-(((((1-(6-amino-9H-purin-9-yl)propan-2-yl)oxy)methyl)phosphoryl)bis(azanediyl))(R)-bis(2-methylpropanoate)]
< 1 | CCCCCCOC(=O)[C@](C)(Cc1ccccc1)NP(=O)(CO[C@H](C)Cn1cnc2c(N)ncnc21)N[C@@](C)(Cc1ccccc1)C(=O)OCCCCCC [Example 11, Dihexyl 2,2′-((((((R)-1-(6-amino-9H-purin-9-yl)propan-2-yl)oxy)methyl)phosphoryl)bis(azanediyl))(2S,2'S)-bis(2-methyl-3-phenylpropanoate)]
57 (≈ 91.7 µM) | C[C@H](Cn1cnc2c(N)ncnc21)OCP(=O)(NC(C)(C)C(=O)OC1CCCCC1)NC(C)(C)C(=O)OC1CCCCC1 [Example 40, Dicyclohexyl 2,2′-(((((1-(6-amino-9H-purin-9-yl)propan-2-yl)oxy)methyl)phosphoryl)bis(azanediyl))(R)-bis(2-methylpropanoate)]
60 (≈ 97.8 µM) | CCCCCCOC(=O)C(C)(C)NP(=O)(CO[C@H](C)Cn1cnc2c(N)ncnc21)NC(C)(C)C(=O)OCC1(F)CC1 (stereo partly drawn) [Example 78, (1-Fluorocyclopropyl)methyl 2-((((((R)-1-(6-amino-9H-purin-9-yl)propan-2-yl)oxy)methyl)((1-(hexyloxy)-2-methyl-1-oxopropan-2-yl)amino)phosphoryl)amino)-2-methylpropanoate]
49 (≈ 82 µM) | CC(C)CCOC(=O)C(C)(C)NP(=O)(CO[C@H](C)Cn1cnc2c(N)ncnc21)NC(C)(C)C(=O)OCCC(C)C [Example 6, Diisopentyl 2,2′-(((((1-(6-amino-9H-purin-9-yl)propan-2-yl)oxy)methyl)phosphoryl)bis(azanediyl))(R)-bis(2-methylpropanoate)]
3 (≈ 4.59 µM) | CC(C)CCCCOC(=O)C(C)(C)NP(=O)(CO[C@H](C)Cn1cnc2c(N)ncnc21)NC(C)(C)C(=O)OCCCCC(C)C [Example 68, Bis(5-methylhexyl) 2,2′-(((((1-(6-amino-9H-purin-9-yl)propan-2-yl)oxy)methyl)phosphoryl)bis(azanediyl))(R)-bis(2-methylpropanoate)]
49 (≈ 78.6 µM) | CCCCCCOC(=O)C(C)(C)NP(=O)(CO[C@H](C)Cn1cnc2c(N)ncnc21)NC1(C(=O)OCCCCCC)CC1 (stereo partly drawn) [Example 20, Hexyl 1-((((((R)-1-(6-amino-9H-purin-9-yl)propan-2-yl)oxy)methyl)((1-(hexyloxy)-2-methyl-1-oxopropan-2-yl)amino)phosphoryl)amino)cyclopropane-1-carboxylate]
53 (≈ 97.9 µM) | CC(C)OC(=O)C(C)(C)NP(=O)(CO[C@H](C)Cn1cnc2c(N)ncnc21)NC(C)(C)C(=O)OC(C)C [Example 43, Diisopropyl 2,2′-(((((1-(6-amino-9H-purin-9-yl)propan-2-yl)oxy)methyl)phosphoryl)bis(azanediyl))(R)-bis(2-methylpropanoate)]
84 (≈ 119 µM) | C[C@H](Cn1cnc2c(N)ncnc21)OCP(=O)(NC(C)(C)C(=O)OCCCCC(F)(F)F)NC(C)(C)C(=O)OCCCCC(F)(F)F [Example 25, Bis(5,5,5-trifluoropentyl) 2,2′-(((((1-(6-amino-9H-purin-9-yl)propan-2-yl)oxy)methyl)phosphoryl)bis(azanediyl))(R)-bis(2-methylpropanoate)]
6 (≈ 8.36 µM) | C[C@H](Cn1cnc2c(N)ncnc21)OCP(=O)(NC(C)(C)C(=O)O[C@H]1C[C@@H](c2ccccc2)C1)NC(C)(C)C(=O)O[C@H]1C[C@@H](c2ccccc2)C1 [Example 85, Bis((1s,3S)-3-phenylcyclobutyl) 2,2′-((((((R)-1-(6-amino-9H-purin-9-yl)propan-2-yl)oxy)methyl)phosphoryl)bis(azanediyl))bis(2-methylpropanoate)]
55 (≈ 82.4 µM) | CCCCCCOC(=O)C(C)(C)NP(=O)(CO[C@H](C)Cn1cnc2c(NC(C)=O)ncnc21)NC(C)(C)C(=O)OCCCCCC [Example 28, Dihexyl 2,2′-(((((1-(6-acetamido-9H-purin-9-yl)propan-2-yl)oxy)methyl)phosphoryl)bis(azanediyl))(R)-bis(2-methylpropanoate)]
7 (≈ 10.7 µM) | CCCCCCOC(=O)[C@](C)(CC)NP(=O)(CO[C@H](C)Cn1cnc2c(N)ncnc21)N[C@@](C)(CC)C(=O)OCCCCCC [Example 10, Dihexyl 2,2′-((((((R)-1-(6-amino-9H-purin-9-yl)propan-2-yl)oxy)methyl)phosphoryl)bis(azanediyl))(2S,2′S)-bis(2-methylbutanoate)]
53 (≈ 88.7 µM) | C[C@H](Cn1cnc2c(N)ncnc21)OCP(=O)(NC(C)(C)C(=O)OCC(C)(C)C)NC(C)(C)C(=O)OCC(C)(C)C [Example 5]
56 (≈ 86.2 µM) | CCCCCCOC(=O)C(C)(C)NP(=O)(CO[C@H](C)Cn1cnc2c(N)ncnc21)NC(C)(C)C(=O)OCC12CCC(CC1)C2 (stereo partly drawn) [Example 80, Bicyclo[2.2.1]heptan-1-ylmethyl 2-((((((R)-1-(6-amino-9H-purin-9-yl)propan-2-yl)oxy)methyl)((1-(hexyloxy)-2-methyl-1-oxopropan-2-yl)amino)phosphoryl)amino)-2-methylpropanoate]
36 (≈ 52 µM) | CCCCCCOC(=O)C(C)(C)NP(=O)(CO[C@H](C)Cn1cnc2c(N)ncnc21)NC(C)(C)C(=O)O[C@H]1CC[C@H](C(F)(F)F)CC1 (stereo partly drawn) [Example 22, Hexyl 2-((((((R)-1-(6-amino-9H-purin-9-yl)propan-2-yl)oxy)methyl)((2-methyl-1-oxo-1-((trans-4-(trifluoromethyl)cyclohexyl)oxy)propan-2-yl)amino)phosphoryl)amino)-2-methylpropanoate]
68 (≈ 108 µM) | CCCCCCOC(=O)C(C)(C)NP(=O)(CO[C@H](C)Cn1cnc2c(N)ncnc21)NC(C)(C)C(=O)OCC(C)(C)OC (stereo partly drawn) [Example 79, Hexyl 2-((((((R)-1-(6-amino-9H-purin-9-yl)propan-2-yl)oxy)methyl)((1-(2-methoxy-2-methylpropoxy)-2-methyl-1-oxopropan-2-yl)amino)phosphoryl)amino)-2-methylpropanoate]

SMILES | solubility kinetic at 24 h [µg/mL]
CCC(CC)COC(=O)C(C)(C)N[P@@](=O)(CO[C@H](C)Cn1cnc2c(N)ncnc21)NC1(C(=O)OCC(CC)CC)CC1 [Example 72, 2-Ethylbutyl 1-(((S)-((((R)-1-(6-amino-9H-purin-9-yl)propan-2-yl)oxy)methyl)((1-(2-ethylbutoxy)-2-methyl-1-oxopropan-2-yl)amino)phosphoryl)amino)cyclopropane-1-carboxylate] | 35 (≈ 56.1 µM)
